According to PubChem BioAssay (NCI):
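Interpolation was linear, between the two tested concentrations surrounding the appropriate level; five concentrations were tested over 48 hours in 96-well plates. At the TGI there is no net growth.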

Tests used:
Assay in all cases: DTP human tumour cell line panel, 48 h
[1] = test system: HCT-15 colon
[2] = test system: M14 melanoma
[3] = test system: OVCAR-3 ovarian
[4] = test system: IGROV1 ovarian
[5] = test system: COLO 205 colon
[6] = test system: SK-OV-3 ovarian
[7] = test system: K-562 leukemia
[8] = test system: LOX IMVI melanoma
[9] = test system: HL-60(TB) leukemia
[10] = test system: HS 578T breast
[11] = test system: SNB-75 CNS

Measured: TGI

CC(=O)OC1COC(n2c(O)c(N=NC(N)=S)c3cc(Br)ccc32)C(OC(C)=O)C1OC(C)=O (centres undefined)
not listed: [10] | [11]
> 100 µM: all other assays above

COC1(OC)c2no[n+]([O-])c2CCC1O (centres undefined)
not listed: [9] | [11]
> 100 µM: all other assays above

O=C(NC1=NCC(CN2CCN(c3ccccc3)CC2)O1)Nc1ccccc1 (centres undefined)
not listed: [3] | [11]
> 100 µM: all other assays above

NC(N)=N/N=C/c1c(-c2ccc(Cl)cc2)nc2sccn12
3.61 µM: [11]
3.6 µM: [3]
6.36 µM: [1]
14.3 µM: [7]
37.6 µM: [10]
3.17 µM: [2]
10.8 µM: [6]
4.24 µM: [4]
2.87 µM: [5]

COC1=C(OC)C(=O)C(Cc2c(Cl)nc3sc(C)cn23)=C(C)C1=O
34.5 µM: [2]
67.9 µM: [1]
34.1 µM: [8]
32 µM: [6]
34.7 µM: [5]
66.4 µM: [10]
26.1 µM: [3]
35.5 µM: [4]
45.5 µM: [7]

N#Cc1c(N)nc(-c2ccc(Cl)cc2)c2c1-c1ccccc1S(=O)(=O)CC2
not listed: [6] | [9]
> 100 µM: all other assays above

COC(=O)/C=C(/C)n1nc2ccccc2n1
not listed: [8] | [9]
> 100 µM: all other assays above

CCSc1[nH]c(NC(=S)NC(=O)c2ccccc2Cl)c(C(N)=O)c1C(N)=O
not listed: [3] | [10]
> 10 µM: all other assays above

C(=C\c1cccs1)/c1cccc(/C=C/c2cccs2)n1
79.4 µM: [11]
not listed: [10]
> 100 µM: all other assays above

C[C@]12CCC(=O)C=C1CC[C@@H]1[C@@H]2CC[C@]2(C)C(=O)NC(=O)C[C@@H]12
not listed: [10]
> 100 µM: all other assays above

O=C1C(Cl)C2(CC(/C=C/c3ccccc3Cl)=NN2c2cccc(S(=O)(=O)O)c2)N1c1nc2ccccc2s1 (centres undefined)
27.4 µM: [8]
not listed: [3] | [6]
> 100 µM: all other assays above

C[N+](C)(C)CC(=O)N/N=C/c1oc(-c2c(O)ccc3ccccc23)c(-c2c(O)ccc3ccccc23)c1[N+](=O)[O-]
33.3 µM: [8]
42.2 µM: [5]
61.1 µM: [11]
66.6 µM: [9]
36.3 µM: [6]
37.2 µM: [2]
44.2 µM: [3] | [4]
> 100 µM: [7]

Cc1ccc(S(=O)(=O)n2cc(-c3cc(C(F)(F)F)ccn3)c3cc(Br)ccc32)cc1
30.7 µM: [3]
92.2 µM: [8]
41.3 µM: [10]
35.1 µM: [6]
not listed: [4] | [11]
> 100 µM: all other assays above

Cc1cc2ccccc2n2c1nc1ccccc12
not listed: [8]
> 100 µM: all other assays above

CC(C)OC(=O)c1ccc(NCc2cc(O)ccc2O)cc1Cl
14.7 µM: [4]
49.2 µM: [6]
> 42.2 µM: [3]
3.95 µM: [1]
> 100 µM: [2] | [10] | [8]
31.1 µM: [11]
9.08 µM: [5]

C=Cc1ccc(C)[n+](C[Si](C)(C)O[Si](C)(C)C)c1
not listed: [9] | [10]
> 100 µM: all other assays above

CC(=O)OCC1=C(CCC#N)N2C(=O)C(NC(=O)Cc3cccs3)C2S(=O)C1 (centres undefined)
not listed: [10]
> 100 µM: all other assays above

O=C1/C(=C/c2ccccc2O)N=C(c2ccccc2)N1C1Nc2cc3c(cc2S1)NC(N1C(=O)/C(=C/c2ccccc2O)N=C1c1ccccc1)S3 (centres undefined)
not listed: [5] | [11]
> 100 µM: all other assays above

O=C1NC2ON=C(c3ccccc3)C2C2ON=C(c3ccccc3)N12 (centres undefined)
not listed: [7] | [9]
> 100 µM: all other assays above

O=C(c1cccs1)N(C(=S)N1CCN(c2ccccn2)CC1)c1ccccc1
not listed: [10]
> 100 µM: all other assays above

O=C1CCCCC/C1=C\c1cccc(Cl)c1
94.3 µM: [10]
not listed: [7] | [9]
> 100 µM: all other assays above
